This note sets out measurements from patent publication US10578608B1, “Tools to detect, track and target cancer cells in vivo” (The Regents of the University of California, priority 2015, dated 2020).

k = constrained ethyl (cEt); d = 2'-deoxy (DNA)

For one series, the system named is MSI1 RNA. Briefly: MSI1 expression after ASO free uptake (q-RT-PCR). The series is classed as cell-based, human. To be noted: 24 hours, MIA PaCa-2 cells. As for the experimental part:
(FIG. 8 F to FIG. 8H) Real time PCR analysis of Msi expression following ASO free uptake in MIA PaCa-2 cells. MIA PaCa-2 cells were treated with 2 Gen 2.5 cEt ASOx target MSI1 or Control Gen 2.5 ASO for 24 hours, RNA was isolated and target knockdown (MSI1 RNA level) was determined by q-RT-PCR. IC50 values for each ASO were calculated using GraphPad Prism software; each treatment condition was performed in triplicate. (FIG. 8I) Colony formation assay in MSI1 ASO-treated MIA PaCa-2 cells after weekly delivery of control or MSI1 ASOs; colonies were counted after 4 weeks; n=3 for each ASO tested. (FIG. 8J) In vivo tracking of tumor volume in MSI1 ASO treated MIA PaCa-2 tumors with intratumoral delivery of control or MSI1 ASOs every day for 5 days followed by 2 days off; n=5 for each ASO tested. Nonlinear regression was used to determine the difference in slope between Control ASO and MSI1-ASO-1 (p<0.001). (FIG. 8K) In vivo tracking of tumor volume of primary KP^f/fC tumors with intratumoral delivery of control ASO or MSI1 ASOs following tumor establishment (n=4). […]
To identify human Msi ASO inhibitors, rapid throughput screens were performed to identify effective ASOs as previously described (Wang, J. C. Y. & Dick, J. E. Cancer stem cells: lessons from leukemia. Trends in Cell Biology 15, 494-501 (2005); Reya, T., Morrison, S. J., Clarke, M. F. & Weissman, I. L. Stem cells, cancer, and cancer stem cells. Nature 414(6859):105-11 (2001); Carroll, J. B. et al. Potent and Selective Antisense Oligonucleotides Targeting Single-Nucleotide Polymorphisms in the Huntington Disease Gene/Allele-Specific Silencing of Mutant Huntingtin. Molecular Therapy 19, 2178-2185 (2009); Samuel, V. T. et al. Targeting foxo1 in mice using antisense oligonucleotide improves hepatic and peripheral insulin action. […] Gene expression was assessed with taqman probes for MSI1 and MSI2. […] Colonies were counted 21 days after the first ASO treatment. […] Tumor measurements were recorded every 3 days. […]

In a further series the test system is MIA PaCa-2 tumors. The experiment in a line: In vivo growth of MIA PaCa-2 flank tumors with intratumoral ASO. Details: species or system mouse. Particulars: intratumoral delivery, four weeks (5 days on and 2 days off), NSG mice. The text has this:
Although ASOs have been used to inhibit gene expression in a variety of tissues (Carroll, J. B. et al. Potent and Selective Antisense Oligonucleotides Targeting Single-Nucleotide Polymorphisms in the Huntington Disease Gene/Allele-Specific Silencing of Mutant Huntingtin. Molecular Therapy 19, 2178-2185 (2009); Hung, G. et al. Characterization of Target mRNA Reduction Through In SituRNA Hybridization in Multiple Organ Systems Following Systemic Antisense Treatment in Animals. Nucleic Acid Therapeutics 23, 369-378 (2013); Rigo, F. et al. Pharmacology of a central nervous system delivered 2′-O-methoxyethyl-modified survival of motor neuron splicing oligonucleotide in mice and nonhuman primates. Journal of Pharmacology and Experimental Therapeutics 350, 46-55 (2014)), whether pancreatic cancer cells can take up ASOs was not known. […] Functionally MSI1 ASOs led to a marked reduction in colony numbers as well as in colony size, with a cumulative reduction of ˜2.5 fold in total growth (FIG. 4I). To test the impact of ASO mediated MSI1 inhibition in vivo, human pancreatic cancer cells were transplanted until growth was measurable. Subsequently, MSI1 inhibitors were delivered intratumorally for a period of four weeks (5 days on and 2 days off) and tumor growth monitored. […] KP^f/fC pancreatic tumor cells were isolated, transplanted and monitored until measurable growth (30 mm^3). […]

Turning to “5′-ATATGATACAGGACGG-3′ (sugars from the 5' end k3 d10 k3, backbone and methylation of C not given here) [ASO-1]”, in the series with MSI1 RNA, the “MSI1 expression in cell lines after ASO treatment” value is “inhibited MSI1 expression”. Moreover, the “Tumor growth of human pancreatic cancer cell line derived tumors” value in the series on MIA PaCa-2 tumors was “significant reduction in the rate of tumor growth”.
